Assays:
[1] = Crashing upon dilution of DMSO stock in PBS; assay type: physicochemical
Text: Supplement 11095_2014_1399_MOESM1_ESM.docx, table 14: Table S14. R406 phenylsulfonate salt and free base crashing upon dilution of DMSO stock in PBS | column: Measured Concentration

[2] = Storage stability of R406 in murine plasma samples; assay type: physicochemical, mouse; conditions: murine plasma at -20°C, thawed on Day 3, injected at Day 3
[3] = Storage stability of R406 in murine vitreous samples; assay type: physicochemical, mouse
Method: Stability: The extracted solution stability of R406 from murine plasma or vitreous was assessed at low (41.2nM), medium (370.4 nM), and high (3333.3 nM) concentrations in triplicate at room temperature. Blank murine plasma was spiked with the indicated concentrations of R406 and extracted solutions were stored at room temperature for day 0, and day 2. The short-term stability of R406 in murine plasma or vitreous at -20 °C was assessed at three concentrations in triplicate. […] internal standard/acetonitrile as described previously: for murine plasma samples, 50 µL of sample was quenched by addition of 100 µL of 5 mg/L OSI-906 (internal standard) in 100% acetonitrile, followed by plate sealing, shaking and centrifuging, transfer of 100 µL of supernatant injection of 10 µL of supernatant onto the LC–MS/MS system; for murine vitreous samples, 5 µL of sample quenched by addition of 45 µL of 5 mg/L OSI-906 (internal standard) in 100% acetonitrile, followed by plate sealing, shaking and centrifuging, transfer of 40 µL of supernatant injection of 10 µL of supernatant onto the LC–MS/MS system. Long term stability of R406 in murine plasma or vitreous at −80 °C was assessed. Unextracted spiked murine plasma or vitreous at low, medium, and high levels was frozen at −80 °C for 0, 7, and 14 days. Samples were thawed immediately extracted with acetonitrile/OSI-906, and quantitated. All samples were analyzed in triplicates.

[4] = test system: RB355 retinoblastoma cells; experiment: RB355 cell viability (Cell Titer Glo) after varied exposure durations; assay type: cell-based
Method: RB355 retinoblastoma cells were maintained in RPMI medium (Lonza RPMI-1640) supplemented with 10% FBS (Equitech-Bio), penicillin, streptomycin, and glutamate (Gibco). BJ cells were grown in EMEM (Lonza) supplemented with 10% FBS, penicillin and streptomycin. 293T cells were grown in DMEM supplemented with 10% FBS, penicillin, streptomycin, and glutamate. Cells were passaged every 3-4 days or when they reached 70%-80% confluence.
RB335 cells were seeded in 6-well dishes. Seeded cells were incubated overnight at 37 °C in a humidified 5% CO2 incubator. Cells were treated with DMSO alone, 1, 2.5, or 5 µM R406 and returned to the incubator. At 0, 6, 12, 18, 24, and 72 h, the drugged media was removed from a subset of samples (n=3 samples per cell line) and replaced with drug-free media, washing out the R406 for the remainder of the 72 h incubation. After 72 hours, cells were suspended and aliquoted into a 96 well plate assaying viability (50 µL of cells per well, each sample assayed in duplicate and averaged). Plates were equilibrated at room temperature for 20 min before addition of 50 μL Cell Titer Glo (Promega) to each well. Plates were shaken on an orbital shaker for 2 min at 500 rpm. Luminescence was read after 15 min on an Envision plate reader (Perkin Elmer). Dissociated cells were also stained for caspase and EdU. […]

Question: With COc1cc(Nc2ncc(F)c(Nc3ccc4c(n3)NC(=O)C(C)(C)O4)n2)cc(OC)c1OC.O=S(=O)(O)c1ccccc1 [R406 phenylsulfonate salt] as the compound, how does the “Measured Concentration” value ([1]; 10 mM DMSO stock diluted 1 in 10 in PBS prior to filtration) read?
Answer: Its value is 1010 µM.

Question: And the “Measured Concentration” value ([1]; DMSO stock diluted 1 in 10 in PBS, 0.22 micron filtered)?
Answer: Its value is 88 µM.

Question: What about the “Measured Concentration” value ([1]; DMSO stock diluted 1 in 20 in PBS prior to filtration) of the same compound?
Answer: Its value is 559 µM.

Question: And the “Measured Concentration” value ([1]; DMSO stock diluted 1 in 20 in PBS, 0.22 micron filtered)?
Answer: The value was 98 µM.

Question: For COc1cc(Nc2ncc(F)c(Nc3ccc4c(n3)NC(=O)C(C)(C)O4)n2)cc(OC)c1OC [R406], which Accuracy% ([2]; High Control 3333.3 nM) is on record?
Answer: The Accuracy% was 90.3%.

Question: And the Accuracy% ([2]; Low Control 41.2 nM)?
Answer: Its Accuracy% is 96.1%.

Question: What about the “time extracted samples were stable” value ([3]; extracted from murine vitreous, room temperature) of the same compound?
Answer: The value was “at least 48 hours”.

Question: And the Accuracy% ([3]; extracted vitreous samples in autosampler for 2 days, injected at Day 3, High Control 3333.3 nM)?
Answer: The Accuracy% was 91.6%.

Question: What about the Accuracy% ([3]; extracted vitreous samples in autosampler for 2 days, injected at Day 3, Low Control 41.2 nM) of the same compound?
Answer: The Accuracy% was 96.0%.

Question: And the Accuracy% ([3]; extracted vitreous samples in autosampler for 2 days, injected at Day 3, Middle Control 370.4 nM)?
Answer: Its Accuracy% is 88.8%.

Question: What about the Accuracy% ([3]; murine vitreous at -20°C, thawed on Day 2, injected at Day 3, High Control 3333.3 nM) of the same compound?
Answer: The Accuracy% was 91.1%.

Question: And the Accuracy% ([3]; murine vitreous at -20°C, thawed on Day 2, injected at Day 3, Low Control 41.2 nM)?
Answer: Its Accuracy% is 109.4%.

Question: And the Accuracy% ([3]; murine vitreous at -20°C, thawed on Day 2, injected at Day 3, Middle Control 370.4 nM)?
Answer: Its Accuracy% is 93.2%.

Question: And the Accuracy% ([3]; murine vitreous at -20°C, thawed on Day 3, injected at Day 3, High Control 3333.3 nM)?
Answer: The Accuracy% was 90.3%.

Question: And the Accuracy% ([3]; murine vitreous at -20°C, thawed on Day 3, injected at Day 3, Low Control 41.2 nM)?
Answer: The Accuracy% was 96.6%.

Question: What about the Accuracy% ([3]; murine vitreous at -20°C, thawed on Day 3, injected at Day 3, Middle Control 370.4 nM) of the same compound?
Answer: The Accuracy% was 94.4%.

Question: And the Accuracy% ([3]; murine vitreous at -80°C, injected at Day 8, High Control 3333.3 nM)?
Answer: The Accuracy% was 96.4%.

Question: What about the Accuracy% ([3]; murine vitreous at -80°C, injected at Day 8, Low Control 41.2 nM) of the same compound?
Answer: The Accuracy% was 78.7%.

Question: And the Accuracy% ([3]; murine vitreous at -80°C, injected at Day 8, Middle Control 370.4 nM)?
Answer: Its Accuracy% is 87.5%.

Question: What about the Accuracy% ([3]; murine vitreous at -80°C, injected at Day 15, High Control 3333.3 nM) of the same compound?
Answer: Its Accuracy% is 105.2%.

Question: What about the Accuracy% ([3]; murine vitreous at -80°C, injected at Day 15, Low Control 41.2 nM) of the same compound?
Answer: Its Accuracy% is 105.5%.

Question: What about the Accuracy% ([3]; murine vitreous at -80°C, injected at Day 15, Middle Control 370.4 nM) of the same compound?
Answer: Its Accuracy% is 99.4%.

Question: What about the “time spiked samples were stable” value ([3]; murine vitreous stored at -20°C) of the same compound?
Answer: The value was “at least 72 hours”.

Question: What about the “time spiked samples were stable” value ([3]; murine vitreous stored at -80°C) of the same compound?
Answer: The value was ≥ 14 days.

Question: What about the cytotoxicity ([4]; 1 μM R406, 48 – 72 h exposure, read-out: drop in viability compared to DMSO treated controls) of the same compound?
Answer: Its cytotoxicity is ~20%.

Question: What about the “reduction in viability compared to DMSO treated controls” value ([4]; 1 μM R406, up to 24 h exposure) of the same compound?
Answer: The value was “no reduction in cell viability”.

Reference: PMC4213378, “Pharmacokinetics and Efficacy of the Spleen Tyrosine Kinase Inhibitor R406 after Ocular Delivery for Retinoblastoma” (Pharmaceutical Research, 2014)
